Data from patent publication US6673782B2, “Treatment of systemic lupus erythematosis” (Wisconsin Alumni Research Foundation, priority 1999, dated 2004).
Entries after “also recorded” stand apart in the source; their conditions may differ.

Legend:
MRL/MPJ-Fas<lpr>mice [1] = test: Mortality of MRL/MPJ-Fas mice on 0.02% calcium diet; format: in vivo; settings: 0.02% Ca + 100 ng/mouse/day; between 18 and 20 weeks of age (no control deaths)
Procedure: (§1) MRL/MPJ-Fasmice were raised on a chow diet. At 5-6 weeks of age 13 mice were switched to a purified diet containing 0.02% calcium and 14 mice were put on a diet containing 0.02% calcium with 100 ng of 1,25(OH)2D3 per/mouse/day. The mice were checked weekly for physical symptoms of lupus. The symptoms were given numerical scores starting at 0.5=small sore on skin; 1=swollen lymph nodes under front legs; 2=swollen lymph nodes under front legs and neck; 3=swollen lymph nodes under front legs, neck, and back legs (severity scores used in figure on the next page).
(§2) FIG. 3A and B and Tables 3 and 4 disclose data points obtained in this study. At 12 weeks of age the 0.02% Ca+100 ng of 1,25(OH)2D3 group began to show SLE symptoms. It was not until 14 weeks of age that the control (0.02% Ca) mice had the same percentage severity as the mice dosed with 1,25(OH)2D3. Between 18 and 20 weeks of age, about 21.4% of the 0.02% Ca+100 ng 1,25(OH)2D3 mice died. However, none of the controls had reached motality. The experiment was ended at 20 weeks of age.

MRL/I mice = settings: Lemire et al., Autoimmunity 1992; cited from earlier work
MRL/MPJ-Fas<lpr>mice [2] = test: Proteinuria in MRL/MPJ-Fas mice on 0.02% calcium diet; format: in vivo; settings: 0.02% Ca diet + 100 ng/mouse/day
MRL/MPJ mice [3] = test: SLE disease severity (physical symptom) scores in MRL mice on 0.87% calcium diet; format: in vivo; parameters: key to Mean scores of disease severity: 0.5 = small sores … 3 = swollen nodes front legs, neck and back legs; settings: for Mean scores of disease severity: 0.87% Ca, score 0.5-3
Procedure: MRL mice are the model for the human disease lupus. See Brians, et al., J. Exp. Med. 148:1198-1215, 1978 and P. L. Cohen and R. A. Eisenburg, Annu. Rev. Immunol. 9:243-69, 1991.
(§3) When the MRL mice in this study were 4 weeks old, they were started on one of three experimental diets. All mice were fed the experimental diet which contains 0.87% Ca. Control mice are fed the experimental diet with no 1,25(OH)2D3; one group of 7 mice were fed the experimental diet with 50 ng/mouse/day of 1,25(OH)2D3; and another group of 8 mice were fed the experimental diet with 200 ng/mouse/day of 1,25(OH)2D3. The mice were checked weekly for physical symptoms. In control-fed MRL mice, SLE disease symptoms spontaneously develop after 5 weeks. Symptoms were given numbers from 0.5 to 3, with 0.5 being small sores; 1, swollen lymph nodes under front legs; 2, swollen lymph nodes under front legs and on neck; 3, swollen lymph nodes under front legs, neck and back legs (severity scores for table).
(§4) The diet was then replaced with the same diet providing a dose level of 100 ng/mouse/day.
(§5) The first physical symptoms of lupus began to develop in two female control-fed mice at 14 weeks of age. […] At 17 weeks of age the control mice started to die. Their proteinuria levels were elevated above 300 mg/dl. […] FIG. 1 compares the percentage of mice with elevated proteinuria with the age of the mouse. FIG. 2 compares the severity of the SLE with symptoms the age of the mice.

[4] = Serum calcium, hypercalcemia and death in MRL mice on 0.87% calcium diet; format: in vivo; settings: for Serum calcium: 0.87% Ca diet (controls 8 mg %Ca)
Procedure: as §3, §4, §5
Serum calcium values were measured and found to be at 8 mg %Ca for the controls, and 12 mg %Ca for both the 50 ng and 100 ng treated groups. The 1,25(OH)2D3 treatment diet was removed at 17 weeks of age, and all mice were fed the 0.87% calcium control diet for the remainder of the experiment.

MRL/MPJ mice [5] = test: Proteinuria in MRL mice on 0.87% calcium diet; format: in vivo; settings: for % of Mice with Proteinuria at 100 mg/dL and Greater: 0.87% Ca
Procedure: as §3
Proteinuria levels were checked weekly started at 16 weeks of age.
as §5

MRL/MPJ-Fas<lpr>mice [6] = test: Mean symptom scores of lupus in MRL/MPJ-Fas mice on 0.02% calcium diet; format: in vivo; settings: for Mean symptom scores on 0.02% Ca: 0.02% Ca diet + 100 ng/mouse/day, score 0.5-3
Procedure: as §1, §2

C=C1/C(=C\C=C2/CCC[C@]3(C)[C@@H]([C@H](C)CCCC(C)(C)O)CC[C@@H]23)C[C@@H](O)C[C@@H]1O [1,25(OH)2D3, 1α,25-dihydroxyvitamin D3]
Mice died (MRL/MPJ-Fas<lpr>mice [1]): about 21.4% | Effect on symptoms of experimental murine lupus (MRL/I mice): attenuation by 1,25-dihydroxyvitamin D3 of some symptoms | % Proteinurea scores above 100 mg/dl on 0.02% Ca (MRL/MPJ-Fas<lpr>mice [2]; age 10 weeks): 0% | % Proteinurea scores above 100 mg/dl on 0.02% Ca (MRL/MPJ-Fas<lpr>mice [2]; age 11 weeks): 0% | % Proteinurea scores above 100 mg/dl on 0.02% Ca (MRL/MPJ-Fas<lpr>mice [2]; age 12 weeks): 7.14% | % Proteinurea scores above 100 mg/dl on 0.02% Ca (MRL/MPJ-Fas<lpr>mice [2]; age 13 weeks): 14.28% | % Proteinurea scores above 100 mg/dl on 0.02% Ca (MRL/MPJ-Fas<lpr>mice [2]; age 14 weeks): 14.28% | % Proteinurea scores above 100 mg/dl on 0.02% Ca (MRL/MPJ-Fas<lpr>mice [2]; age 15 weeks): 35.7% | % Proteinurea scores above 100 mg/dl on 0.02% Ca (MRL/MPJ-Fas<lpr>mice [2]; age 16 weeks): 28.57% | % Proteinurea scores above 100 mg/dl on 0.02% Ca (MRL/MPJ-Fas<lpr>mice [2]; age 17 weeks): 28.57% | % Proteinurea scores above 100 mg/dl on 0.02% Ca (MRL/MPJ-Fas<lpr>mice [2]; age 18 weeks): 42.85% | % Proteinurea scores above 100 mg/dl on 0.02% Ca (MRL/MPJ-Fas<lpr>mice [2]; age 19 weeks): 28.57% | % Proteinurea scores above 100 mg/dl on 0.02% Ca (MRL/MPJ-Fas<lpr>mice [2]; age 20 weeks): 28.57% | Mean scores of disease severity (MRL/MPJ mice [3]; 50 ng/mouse/day until 17 weeks, age 18 weeks): 0.21 | Mean scores of disease severity (MRL/MPJ mice [3]; 50 ng/mouse/day until 17 weeks, age 19 weeks): 0.12 | Mean scores of disease severity (MRL/MPJ mice [3]; 50 ng/mouse/day until 17 weeks, age 20 weeks): 0.33 | Mean scores of disease severity (MRL/MPJ mice [3]; 50 ng/mouse/day until 17 weeks, age 21 weeks): 0.11 | Mean scores of disease severity (MRL/MPJ mice [3]; 50 ng/mouse/day until 17 weeks, age 22 weeks): 0.11 | Mean scores of disease severity (MRL/MPJ mice [3]; 50 ng/mouse/day until 17 weeks, age 23 weeks): 0.11 | Mean scores of disease severity (MRL/MPJ mice [3]; 50 ng/mouse/day until 17 weeks, age 24 weeks): 0.11 | Mean scores of disease severity (MRL/MPJ mice [3]; 50 ng/mouse/day, age 0-13 weeks): 0.00 | Mean scores of disease severity (MRL/MPJ mice [3]; 50 ng/mouse/day, age 14 weeks): 0.00 | Mean scores of disease severity (MRL/MPJ mice [3]; 50 ng/mouse/day, age 15 weeks): 0.00 | Mean scores of disease severity (MRL/MPJ mice [3]; 50 ng/mouse/day, age 16 weeks): 0.21 | Mean scores of disease severity (MRL/MPJ mice [3]; 50 ng/mouse/day, age 17 weeks): 0.21 | Mean scores of disease severity (MRL/MPJ mice [3]; 200 ng then 100 ng/mouse/day until 17 weeks, age 18 weeks): 0.07 | Mean scores of disease severity (MRL/MPJ mice [3]; 200 ng then 100 ng/mouse/day until 17 weeks, age 19 weeks): 0.08 | Mean scores of disease severity (MRL/MPJ mice [3]; 200 ng then 100 ng/mouse/day until 17 weeks, age 20 weeks): 0.00 | Mean scores of disease severity (MRL/MPJ mice [3]; 200 ng then 100 ng/mouse/day until 17 weeks, age 21 weeks): 0.00 | Mean scores of disease severity (MRL/MPJ mice [3]; 200 ng then 100 ng/mouse/day until 17 weeks, age 22 weeks): 0.00 | Mean scores of disease severity (MRL/MPJ mice [3]; 200 ng then 100 ng/mouse/day until 17 weeks, age 23 weeks): 0.00 | Mean scores of disease severity (MRL/MPJ mice [3]; 200 ng then 100 ng/mouse/day until 17 weeks, age 24 weeks): 0.00 | Mean scores of disease severity (MRL/MPJ mice [3]; 200 ng then 100 ng/mouse/day, age 14 weeks): 0.00 | Mean scores of disease severity (MRL/MPJ mice [3]; 200 ng then 100 ng/mouse/day, age 15 weeks): 0.00 | Mean scores of disease severity (MRL/MPJ mice [3]; 200 ng then 100 ng/mouse/day, age 16 weeks): 0.00 | Mean scores of disease severity (MRL/MPJ mice [3]; 200 ng then 100 ng/mouse/day, age 17 weeks): 0.00 | Mean scores of disease severity (MRL/MPJ mice [3]; 200 ng then (from 10 weeks) 100 ng/mouse/day, age 0-13 weeks): 0.00 | Effect on SLE symptoms (MRL/MPJ mice [3]; mice on a 0.87% calcium diet): prevented or slowed SLE symptoms | Disease severity scores versus controls (MRL/MPJ mice [3]; treated mice, 0.87% Ca diet): much less for the treated mice than for controls | Physical symptoms of lupus (MRL/MPJ mice [3]; treated mice, 0.87% Ca diet, at 14 weeks of age (two control mice symptomatic)): None of the 1,25(OH)2D3-treated mice showed symptoms | Serum calcium ([4]; 50 ng treated group): 12 mg %Ca | Serum calcium ([4]; 100 ng treated group): 12 mg %Ca | Symptoms of hypercalcemia ([4]; 200 ng/mouse/day, 0.87% Ca diet, at 10 weeks of age): began to show symptoms of hypercalcemia | Death of treated animals ([4]; 0.87% Ca diet, at 17 weeks of age): began to die of what we believe to be hypercalcemia | % of Mice with Proteinuria at 100 mg/dL and Greater (MRL/MPJ mice [5]; 50 ng/mouse/day in diet, treatment removed at 17 weeks, age 18 weeks): 0% | % of Mice with Proteinuria at 100 mg/dL and Greater (MRL/MPJ mice [5]; 50 ng/mouse/day in diet, treatment removed at 17 weeks, age 19-25 weeks): 0% | % of Mice with Proteinuria at 100 mg/dL and Greater (MRL/MPJ mice [5]; 50 ng/mouse/day in diet, age 0-15 weeks): 0% | % of Mice with Proteinuria at 100 mg/dL and Greater (MRL/MPJ mice [5]; 50 ng/mouse/day in diet, age 16-17 weeks): 0% | % of Mice with Proteinuria at 100 mg/dL and Greater (MRL/MPJ mice [5]; 200 ng then 100 ng/mouse/day in diet, treatment removed at 17 weeks, age 18 weeks): 0% | % of Mice with Proteinuria at 100 mg/dL and Greater (MRL/MPJ mice [5]; 200 ng then 100 ng/mouse/day in diet, treatment removed at 17 weeks, age 19-25 weeks): 0% | % of Mice with Proteinuria at 100 mg/dL and Greater (MRL/MPJ mice [5]; 200 ng then 100 ng/mouse/day in diet, age 16-17 weeks): 0% | % of Mice with Proteinuria at 100 mg/dL and Greater (MRL/MPJ mice [5]; 200 ng then (from 10 weeks) 100 ng/mouse/day in diet, age 0-15 weeks): 0% | Development of proteinuria of 100 mg/dL or greater (MRL/MPJ mice [5]; all treated mice, 0.87% Ca diet, whole experiment): none of the 1,25(OH)2D3 treated mice developed proteinuria of 100 mg/dL or greater | Age at which group began to show SLE symptoms (MRL/MPJ-Fas<lpr>mice [6]; 0.02% Ca + 100 ng/mouse/day): 12 weeks of age | Mean symptom scores on 0.02% Ca (MRL/MPJ-Fas<lpr>mice [6]; age 10 weeks): 0 | Mean symptom scores on 0.02% Ca (MRL/MPJ-Fas<lpr>mice [6]; age 11 weeks): 0.214 ± 0.410 | Mean symptom scores on 0.02% Ca (MRL/MPJ-Fas<lpr>mice [6]; age 12 weeks): 1.642 ± 0.410 | Mean symptom scores on 0.02% Ca (MRL/MPJ-Fas<lpr>mice [6]; age 13 weeks): 2.14 ± 0.515 | Mean symptom scores on 0.02% Ca (MRL/MPJ-Fas<lpr>mice [6]; age 14 weeks): 2.714 ± 0.45 | Mean symptom scores on 0.02% Ca (MRL/MPJ-Fas<lpr>mice [6]; age 15 weeks): 2.785 ± 0.41 | Mean symptom scores on 0.02% Ca (MRL/MPJ-Fas<lpr>mice [6]; age 16 weeks): 2.85 ± 0.349 | Mean symptom scores on 0.02% Ca (MRL/MPJ-Fas<lpr>mice [6]; age 17 weeks): 2.85 ± 0.349 | Mean symptom scores on 0.02% Ca (MRL/MPJ-Fas<lpr>mice [6]; age 18 weeks): 2.80 ± 0.46 | Mean symptom scores on 0.02% Ca (MRL/MPJ-Fas<lpr>mice [6]; age 19 weeks): 2.77 ± 0.49 | Mean symptom scores on 0.02% Ca (MRL/MPJ-Fas<lpr>mice [6]; age 20 weeks): 2.95 ± 0.33 | Disease progression (MRL/MPJ-Fas<lpr>mice [6]; low calcium diet and treatment): disease progression occurring more quickly | Effect on SLE symptoms (MRL/MPJ-Fas<lpr>mice [6]; mice on a 0.02% (low) calcium diet): not effective; also recorded: did not inhibit these symptoms
